According to ChEMBL document CHEMBL5303573, “Mapping human microbiome drug metabolism by gut bacteria and their genes” (Nature, 2019):

Assays:
[1] = The drug is tested on Bifidobacterium longum subsp. Infantis strain: CCUG52486 for biotransformation. The drug concentrations were measured before and after a 12-h incubation by liquid-chromatography-coupled mass spectrometry (LC–MS); conditions: 2 µM
[2] = The drug is tested on Bacteroides dorei strain: DSM17855 for biotransformation. The drug concentrations were measured before and after a 12-h incubation by liquid-chromatography-coupled mass spectrometry (LC–MS); conditions: phocaeicola dorei, 2 µM
[3] = The drug is tested on Bacteroides fragilis strain: ATCC43859 for biotransformation. The drug concentrations were measured before and after a 12-h incubation by liquid-chromatography-coupled mass spectrometry (LC–MS); conditions: 2 µM
[4] = The drug is tested on Bacteroides ovatus strain: ATCC8483 for biotransformation. The drug concentrations were measured before and after a 12-h incubation by liquid-chromatography-coupled mass spectrometry (LC–MS); conditions: 2 µM
[5] = The drug is tested on Bacteroides pectinophilus strain: ATCC43243 for biotransformation. The drug concentrations were measured before and after a 12-h incubation by liquid-chromatography-coupled mass spectrometry (LC–MS); conditions: 2 µM
[6] = The drug is tested on Parabacteroides merdae strain: ATCC43184 for biotransformation. The drug concentrations were measured before and after a 12-h incubation by liquid-chromatography-coupled mass spectrometry (LC–MS); conditions: 2 µM
[7] = The drug is tested on Coprococcus comes strain: ATCC27758 for biotransformation. The drug concentrations were measured before and after a 12-h incubation by liquid-chromatography-coupled mass spectrometry (LC–MS); type: ADME; design: dose 2 uM, timepoint 0 vs 12 hours; conditions: 2 µM
[8] = The drug is tested on Eubacterium hallii strain: DSM3353 for biotransformation. The drug concentrations were measured before and after a 12-h incubation by liquid-chromatography-coupled mass spectrometry (LC–MS); conditions: anaerobutyricum hallii, 2 µM
[9] = The drug is tested on Eubacterium rectale strain: ATCC33656 for biotransformation. The drug concentrations were measured before and after a 12-h incubation by liquid-chromatography-coupled mass spectrometry (LC–MS); conditions: agathobacter rectalis, 2 µM
[10] = The drug is tested on Eubacterium ventriosum strain: ATCC27560 for biotransformation. The drug concentrations were measured before and after a 12-h incubation by liquid-chromatography-coupled mass spectrometry (LC–MS); type: ADME; design: dose 2 uM, timepoint 0 vs 12 hours; conditions: 2 µM
[11] = The drug is tested on Ruminococcus gnavus strain: ATCC29149 for biotransformation. The drug concentrations were measured before and after a 12-h incubation by liquid-chromatography-coupled mass spectrometry (LC–MS); conditions: mediterraneibacter gnavus, 2 µM
[12] = The drug is tested on Ruminococcus lactaris strain: ATCC29176 for biotransformation. The drug concentrations were measured before and after a 12-h incubation by liquid-chromatography-coupled mass spectrometry (LC–MS); conditions: 2 µM
[13] = The drug is tested on Subdoligranulum variabile strain: DSM15176 for biotransformation. The drug concentrations were measured before and after a 12-h incubation by liquid-chromatography-coupled mass spectrometry (LC–MS); conditions: 2 µM
[14] = The drug is tested on Escherichia coli strain: BW25113 for biotransformation. The drug concentrations were measured before and after a 12-h incubation by liquid-chromatography-coupled mass spectrometry (LC–MS); conditions: 2 µM
[15] = bacteroides stercoris, 12 h, 2 µM
Description: The drug is tested on Bacteroides stercoris strain: ATCC43183 for biotransformation. The drug concentrations were measured before and after a 12-h incubation by liquid-chromatography-coupled mass spectrometry (LC–MS)

[16] = enterocloster bolteae, 12 h, 2 µM
Description: The drug is tested on Clostridium bolteae strain: ATCCBAA-613 for biotransformation. The drug concentrations were measured before and after a 12-h incubation by liquid-chromatography-coupled mass spectrometry (LC–MS)

[17] = The drug is tested on Clostridium sp. strain: fecal isolate for biotransformation. The drug concentrations were measured before and after a 12-h incubation by liquid-chromatography-coupled mass spectrometry (LC–MS); conditions: 2 µM
[18] = The drug is tested on Blautia hansenii strain: DSM20583 for biotransformation. The drug concentrations were measured before and after a 12-h incubation by liquid-chromatography-coupled mass spectrometry (LC–MS); conditions: 2 µM
[19] = parabacteroides distasonis, 12 h, 2 µM
Description: The drug is tested on Parabacteroides distasonis strain: ATCC8503 for biotransformation. The drug concentrations were measured before and after a 12-h incubation by liquid-chromatography-coupled mass spectrometry (LC–MS)

SMILES | Bacterial Biotransformation [1] | Bacterial Biotransformation [2] | Bacterial Biotransformation [3] | Bacterial Biotransformation [4] | Bacterial Biotransformation [5] | Bacterial Biotransformation [6] | Bacterial Biotransformation [7] | Bacterial Biotransformation [8] | Bacterial Biotransformation [9] | Bacterial Biotransformation [10] | Bacterial Biotransformation [11] | Bacterial Biotransformation [12] | Bacterial Biotransformation [13] | Bacterial Biotransformation [14] | Bacterial Biotransformation [15] | Bacterial Biotransformation [16] | Bacterial Biotransformation [17] | Bacterial Biotransformation [18] | Bacterial Biotransformation [19]
O=C(CCCN1CCC(O)(c2ccc(Cl)cc2)CC1)c1ccc(F)cc1 [HALOPERIDOL] | Compound NOT metabolized | Compound NOT metabolized | Compound NOT metabolized | Compound NOT metabolized | Compound NOT metabolized | Compound NOT metabolized | Compound NOT metabolized | Compound NOT metabolized | Compound NOT metabolized | Compound NOT metabolized | Compound NOT metabolized | Compound NOT metabolized | Compound NOT metabolized | Compound NOT metabolized | Compound NOT metabolized | Compound NOT metabolized |  |  | 
CN1C(=O)CC(C)(c2ccccc2)C1=O (configuration not stated) [METHSUXIMIDE] | Compound NOT metabolized | Compound metabolized | Compound NOT metabolized | Compound NOT metabolized |  | Compound NOT metabolized | Compound NOT metabolized | Compound NOT metabolized |  | Compound NOT metabolized | Compound NOT metabolized |  | Compound NOT metabolized | Compound metabolized | Compound NOT metabolized | Compound NOT metabolized | Compound metabolized |  | 
CN(C)CCC=C1c2ccccc2COc2ccccc21 [DOXEPIN] | Compound NOT metabolized | Compound NOT metabolized |  | Compound NOT metabolized |  | Compound NOT metabolized | Compound NOT metabolized | Compound NOT metabolized | Compound NOT metabolized | Compound NOT metabolized | Compound NOT metabolized | Compound NOT metabolized | Compound NOT metabolized | Compound NOT metabolized | Compound NOT metabolized | Compound NOT metabolized |  | Compound NOT metabolized | 
CCN(CC)CC#CCOC(=O)C(O)(c1ccccc1)C1CCCCC1.Cl (configuration not stated) [OXYBUTYNIN CHLORIDE] |  | Compound metabolized |  | Compound NOT metabolized |  | Compound NOT metabolized |  | Compound NOT metabolized |  | Compound metabolized | Compound NOT metabolized | Compound NOT metabolized | Compound NOT metabolized | Compound NOT metabolized | Compound NOT metabolized |  | Compound metabolized | Compound metabolized | Compound NOT metabolized
CC(C)c1c(CN(C)C(C)Cc2ccccc2)n(C)n(-c2ccccc2)c1=O (configuration not stated) [FAMPROFAZONE] | Compound NOT metabolized | Compound metabolized |  | Compound metabolized | Compound NOT metabolized | Compound metabolized | Compound NOT metabolized | Compound NOT metabolized | Compound NOT metabolized | Compound NOT metabolized | Compound NOT metabolized | Compound NOT metabolized | Compound metabolized | Compound NOT metabolized | Compound metabolized | Compound metabolized |  | Compound metabolized | Compound metabolized
Nc1nc(N)nc(-c2cc(Cl)ccc2Cl)n1.O=C(O)/C=C\C(=O)O [IRSOGLADINE MALEATE] |  | Compound metabolized | Compound NOT metabolized | Compound NOT metabolized | Compound NOT metabolized | Compound NOT metabolized | Compound NOT metabolized | Compound NOT metabolized |  | Compound NOT metabolized | Compound NOT metabolized | Compound NOT metabolized | Compound NOT metabolized |  | Compound NOT metabolized | Compound NOT metabolized | Compound NOT metabolized | Compound NOT metabolized | 
CCN(CC)CCNC(=O)c1cc(Cl)c(N)cc1OC [METOCLOPRAMIDE] | Compound NOT metabolized | Compound NOT metabolized | Compound NOT metabolized | Compound NOT metabolized | Compound NOT metabolized | Compound NOT metabolized | Compound NOT metabolized | Compound NOT metabolized | Compound NOT metabolized | Compound NOT metabolized | Compound NOT metabolized | Compound NOT metabolized | Compound NOT metabolized | Compound NOT metabolized | Compound NOT metabolized | Compound NOT metabolized |  |  | Compound NOT metabolized
COC(=O)Nc1nc2ccc(C(=O)c3ccccc3)cc2[nH]1 [MEBENDAZOLE] | Compound NOT metabolized | Compound metabolized |  | Compound NOT metabolized | Compound NOT metabolized | Compound NOT metabolized | Compound NOT metabolized | Compound NOT metabolized | Compound NOT metabolized | Compound NOT metabolized | Compound NOT metabolized |  | Compound NOT metabolized | Compound NOT metabolized | Compound metabolized | Compound NOT metabolized | Compound metabolized | Compound metabolized | Compound metabolized
COc1ccc(Cc2nccc3cc(OC)c(OC)cc23)cc1OC [PAPAVERINE] | Compound NOT metabolized | Compound metabolized | Compound NOT metabolized | Compound NOT metabolized | Compound NOT metabolized | Compound NOT metabolized | Compound NOT metabolized | Compound NOT metabolized | Compound NOT metabolized | Compound NOT metabolized | Compound NOT metabolized | Compound NOT metabolized | Compound NOT metabolized | Compound NOT metabolized | Compound NOT metabolized | Compound NOT metabolized | Compound NOT metabolized |  | 
CN1[C@@H]2CC[C@H]1C[C@@H](OC(=O)C(CO)c1ccccc1)C2 (some centres not stated) [ATROPINE] | Compound NOT metabolized | Compound NOT metabolized |  |  | Compound NOT metabolized |  | Compound NOT metabolized | Compound NOT metabolized | Compound NOT metabolized | Compound NOT metabolized | Compound NOT metabolized |  | Compound NOT metabolized |  | Compound NOT metabolized |  |  | Compound NOT metabolized | 
